Data published in the NIST ThermoML archive (doi:10.1016/j.jct.2013.01.032).

Key:
[1] = mn = molality of the nth substance listed, in mol/kg; conditions: 101 kPa, Liquid; for speed of sound: Sing-around technique in a fixed-path interferometer; for mass density: Vibrating tube method
[2] = osmotic coefficient (dimensionless); mn = molality of the nth substance listed, in mol/kg; conditions: 323.15 K, Liquid, Knauer Osmometer

CCCCn1cc[n+](C)c1.O=S(=O)([O-])C(F)(F)F [1-butyl-3-methylimidazolium trifluoromethanesulfonate] + CCCCO
[1]
Conditions | mass density, 293.15 K [kg/m3] | mass density, 308.15 K [kg/m3] | mass density, 323.15 K [kg/m3] | speed of sound, 293.15 K [m/s] | speed of sound, 308.15 K [m/s] | speed of sound, 323.15 K [m/s]
m1 = 0.052 | 814.31 | 802.84 | 790.99 | 1257.8 | 1207.6 | 1158.1
m1 = 0.101 | 818.63 | 807.15 | 795.31 | 1258 | 1208 | 1158.8
m1 = 0.153 | 823.08 | 811.61 | 799.78 | 1257.7 | 1208.3 | 1159.4
m1 = 0.206 | 827.53 | 816.05 | 804.22 | 1257.9 | 1208.8 | 1160.1
m1 = 0.25 | 831.16 | 819.67 | 807.85 | 1258 | 1209.1 | 1160.6
m1 = 0.504 | 851.11 | 839.58 | 827.75 | 1258 | 1210.5 | 1163.2
m1 = 0.756 | 869.28 | 857.7 | 845.85 | 1259.2 | 1212.1 | 1165.7
m1 = 1.009 | 886.03 | 874.41 | 862.55 | 1260.2 | 1213.9 | 1168.4
m1 = 1.262 | 901.54 | 889.89 | 878.01 | 1261 | 1215.8 | 1171
m1 = 1.508 | 915.57 | 903.89 | 892 | 1262.4 | 1217.9 | 1173.7
m1 = 1.758 | 928.83 | 917.11 | 905.21 | 1263.9 | 1219.9 | 1176.4
m1 = 1.989 | 940.32 | 928.56 | 916.64 | 1265.8 | 1222 | 1179
m1 = 2.486 | 962.85 | 951.04 | 939.1 | 1269.5 | 1226.6 | 1184.5
m1 = 2.979 | 982.55 | 970.73 | 958.77 | 1273.1 | 1231.2 | 1189.8

[2]
Conditions | osmotic coefficient
m1 = 0.0481 | 0.84
m1 = 0.1053 | 0.618
m1 = 0.2108 | 0.512
m1 = 0.3131 | 0.457
m1 = 0.4049 | 0.425
m1 = 0.4947 | 0.403
m1 = 0.8149 | 0.36
m1 = 1.216 | 0.323
m1 = 1.613 | 0.301
m1 = 2.036 | 0.28
m1 = 2.425 | 0.268
m1 = 2.82 | 0.27
m1 = 3.311 | 0.259
